Reference: PubChem BioAssay (NCI)
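Method: 48-hour compound exposure of cells in 96-well plates, five concentrations, linear interpolation of endpoints. At the TGI there is no net growth.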

Columns and labels:
Experiment in all cases: inhibition of tumour cell growth, NCI panel, 48 h
786-0 renal = system: 786-0 renal
A549 NSCLC = system: A549 NSCLC
ACHN renal = system: ACHN renal
CAKI-1 renal = system: CAKI-1 renal
COLO 205 colon = system: COLO 205 colon
DLD-1 colon = system: DLD-1 colon
DMS 273 small cell lung = system: DMS 273 small cell lung
HCC-2998 colon = system: HCC-2998 colon
HCT-116 colon = system: HCT-116 colon
HCT-15 colon = system: HCT-15 colon
HL-60(TB) leukemia = system: HL-60(TB) leukemia
HOP-62 NSCLC = system: HOP-62 NSCLC
HOP-92 NSCLC = system: HOP-92 NSCLC
HT29 colon = system: HT29 colon
IGROV1 ovarian = system: IGROV1 ovarian
K-562 leukemia = system: K-562 leukemia
KM12 colon = system: KM12 colon
KM20L2 colon = system: KM20L2 colon
LOX IMVI melanoma = system: LOX IMVI melanoma
LXFL 529 NSCLC = system: LXFL 529 NSCLC
M14 melanoma = system: M14 melanoma
MALME-3M melanoma = system: MALME-3M melanoma
MOLT-4 leukemia = system: MOLT-4 leukemia
NCI-H226 lung = system: NCI-H226 lung
NCI-H23 lung = system: NCI-H23 lung
NCI-H460 lung = system: NCI-H460 lung
NCI-H522 lung = system: NCI-H522 lung
OVCAR-3 ovarian = system: OVCAR-3 ovarian
OVCAR-4 ovarian = system: OVCAR-4 ovarian
OVCAR-5 ovarian = system: OVCAR-5 ovarian
OVCAR-8 ovarian = system: OVCAR-8 ovarian
RPMI-8226 leukemia = system: RPMI-8226 leukemia
SF-268 CNS = system: SF-268 CNS
SF-295 CNS = system: SF-295 CNS
SF-539 CNS = system: SF-539 CNS
SK-MEL-2 melanoma = system: SK-MEL-2 melanoma
SK-MEL-28 melanoma = system: SK-MEL-28 melanoma
SK-OV-3 ovarian = system: SK-OV-3 ovarian
SN12C renal = system: SN12C renal
SNB-19 CNS = system: SNB-19 CNS
SNB-75 CNS = system: SNB-75 CNS
SNB-78 CNS = system: SNB-78 CNS
SR leukemia = system: SR leukemia
SW-620 colon = system: SW-620 colon
TK-10 renal = system: TK-10 renal
U251 CNS = system: U251 CNS
UACC-257 melanoma = system: UACC-257 melanoma
UACC-62 melanoma = system: UACC-62 melanoma
UO-31 renal = system: UO-31 renal
XF 498 CNS = system: XF 498 CNS
A498 renal = system: A498 renal
CCRF-CEM leukemia = system: CCRF-CEM leukemia
DMS 114 small cell lung = system: DMS 114 small cell lung
EKVX NSCLC = system: EKVX NSCLC
HOP-18 NSCLC = system: HOP-18 NSCLC
M19-MEL melanoma = system: M19-MEL melanoma
RXF 393 renal = system: RXF 393 renal
SK-MEL-5 melanoma = system: SK-MEL-5 melanoma

CC(=O)NC(ON1C(=O)COc2ccccc21)C(Cl)(Cl)Cl (centres undefined)
TGI (786-0 renal): > 100 µM | TGI (A549 NSCLC): > 100 µM | TGI (ACHN renal): > 100 µM | TGI (CAKI-1 renal): > 100 µM | TGI (COLO 205 colon): > 100 µM | TGI (DLD-1 colon): > 100 µM | TGI (DMS 273 small cell lung): > 100 µM | TGI (HCC-2998 colon): > 100 µM | TGI (HCT-116 colon): > 100 µM | TGI (HCT-15 colon): > 100 µM | TGI (HL-60(TB) leukemia): > 100 µM | TGI (HOP-62 NSCLC): > 100 µM | TGI (HOP-92 NSCLC): > 100 µM | TGI (HT29 colon): > 100 µM | TGI (IGROV1 ovarian): > 100 µM | TGI (K-562 leukemia): > 100 µM | TGI (KM12 colon): > 100 µM | TGI (KM20L2 colon): > 100 µM | TGI (LOX IMVI melanoma): > 100 µM | TGI (LXFL 529 NSCLC): > 100 µM | TGI (M14 melanoma): > 100 µM | TGI (MALME-3M melanoma): > 100 µM | TGI (MOLT-4 leukemia): > 100 µM | TGI (NCI-H226 lung): 88.1 µM | TGI (NCI-H23 lung): > 100 µM | TGI (NCI-H460 lung): > 100 µM | TGI (NCI-H522 lung): > 100 µM | TGI (OVCAR-3 ovarian): > 100 µM | TGI (OVCAR-4 ovarian): > 100 µM | TGI (OVCAR-5 ovarian): > 100 µM | TGI (OVCAR-8 ovarian): > 100 µM | TGI (RPMI-8226 leukemia): > 100 µM | TGI (SF-268 CNS): > 100 µM | TGI (SF-295 CNS): > 100 µM | TGI (SF-539 CNS): > 100 µM | TGI (SK-MEL-2 melanoma): > 100 µM | TGI (SK-MEL-28 melanoma): > 100 µM | TGI (SK-OV-3 ovarian): > 100 µM | TGI (SN12C renal): > 100 µM | TGI (SNB-19 CNS): > 100 µM | TGI (SNB-75 CNS): > 100 µM | TGI (SNB-78 CNS): > 100 µM | TGI (SR leukemia): > 100 µM | TGI (SW-620 colon): > 100 µM | TGI (TK-10 renal): > 100 µM | TGI (U251 CNS): > 100 µM | TGI (UACC-257 melanoma): > 100 µM | TGI (UACC-62 melanoma): > 100 µM | TGI (UO-31 renal): > 100 µM | TGI (XF 498 CNS): > 100 µM

CCC1(O)C(=O)OCc2c1cc1n(c2=O)Cc2c-1nc1ccccc1c2OC (centres undefined)
TGI (786-0 renal): 0.0249 µM | TGI (A498 renal): 0.319 µM | TGI (A549 NSCLC): 1.85 µM | TGI (ACHN renal): 0.06 µM | TGI (CAKI-1 renal): 1.8 µM | TGI (CCRF-CEM leukemia): < 0.01 µM | TGI (COLO 205 colon): 13.9 µM | TGI (DLD-1 colon): > 100 µM | TGI (DMS 114 small cell lung): 1.26 µM | TGI (DMS 273 small cell lung): 0.108 µM | TGI (EKVX NSCLC): > 54.5 µM | TGI (HCC-2998 colon): 5.77 µM | TGI (HCT-116 colon): 1.21 µM | TGI (HCT-15 colon): 23.7 µM | TGI (HL-60(TB) leukemia): < 0.0341 µM | TGI (HOP-18 NSCLC): > 77.9 µM | TGI (HOP-62 NSCLC): < 0.01 µM | TGI (HOP-92 NSCLC): 3.57 µM | TGI (HT29 colon): > 87.1 µM | TGI (IGROV1 ovarian): 5.65 µM | TGI (K-562 leukemia): > 100 µM | TGI (KM12 colon): 10.8 µM | TGI (LOX IMVI melanoma): 0.441 µM | TGI (LXFL 529 NSCLC): > 69.6 µM | TGI (M14 melanoma): 0.445 µM | TGI (M19-MEL melanoma): 1.89 µM | TGI (MALME-3M melanoma): 25.3 µM | TGI (MOLT-4 leukemia): < 0.0195 µM | TGI (NCI-H226 lung): 0.12 µM | TGI (NCI-H23 lung): 0.0749 µM | TGI (NCI-H522 lung): 0.984 µM | TGI (OVCAR-3 ovarian): 5.85 µM | TGI (OVCAR-4 ovarian): 2.55 µM | TGI (OVCAR-5 ovarian): 27.4 µM | TGI (OVCAR-8 ovarian): > 100 µM | TGI (RPMI-8226 leukemia): 0.511 µM | TGI (RXF 393 renal): 0.11 µM | TGI (SF-268 CNS): 2.31 µM | TGI (SF-295 CNS): 11.3 µM | TGI (SF-539 CNS): 0.0414 µM | TGI (SK-MEL-2 melanoma): 14.7 µM | TGI (SK-MEL-28 melanoma): > 53.8 µM | TGI (SK-MEL-5 melanoma): 0.205 µM | TGI (SK-OV-3 ovarian): 7.47 µM | TGI (SNB-19 CNS): > 29.2 µM | TGI (SNB-75 CNS): 0.129 µM | TGI (SNB-78 CNS): > 100 µM | TGI (SR leukemia): < 0.01 µM | TGI (SW-620 colon): 29 µM | TGI (TK-10 renal): > 100 µM | TGI (U251 CNS): 0.0801 µM | TGI (UACC-257 melanoma): 2.68 µM | TGI (UACC-62 melanoma): 0.413 µM | TGI (UO-31 renal): 0.249 µM
